Legend:
Wistar rats = assay: Liver histology (H&E, red oil ORO, Sirius red) in rats on high fat/high cholesterol diet with or without DDA; type: in vivo
Text: Animal Studies. All in vivo studies used Wistar rats that were kept for 9 weeks on a high fat/high cholesterol diet. The animals were then separated into two groups, a control group that continued the high fat/high cholesterol diet with regular water, whereas the treatment group continued the high fat/high cholesterol diet with water containing DDA (dodecanedioic acid) in an amount of 1% of the caloric intake. After all animals were separated in the respective test groups, body weights were recorded, and a glucose challenge test administered. […] Such effect is particularly unexpected as the quantity of DDA in the food was well below any quantity that was reasonably expected.
While not wishing to be bound by any specific theory or hypothesis, the inventors contemplate that the DDA at the low levels inhibits the trans-differentiation of hepatic stellate cells to myofibroblasts that produce extracellular matrix proteins (including collagen), likely by protecting them from damage due to reactive oxygen species (ROS).

[1] = tested on: endothelial cells (EOMA cells); assay: Total antioxidant capacity in endothelial cells; type: cell-based; details: 24 hours, in the presence of hydrogen peroxide, p=0.001
Text: (§1) To that end, the inventors used endothelial cells (EOMA cells) and liver cells (AML-12 cells) in vitro and quantified various markers in response to exposure of the cells to environmental challenge in the presence and absence of DDA at low concentrations. Unless indicated otherwise, the DDA concentration in the in vitro experiments was 5 mcg per microliter. More specifically, the inventors measured p-H2AX protein levels as a marker for DNA damage, PGC-1α protein levels as a marker for mitochondrial biogenesis, NAMPT enzyme levels as a marker for potential for NAD+ production, and total antioxidant capacity as a marker of cellular health. In addition, the inventors also measured global SIRT activity as a gauge of activity for all SIRT enzymes, and in particular SIRT1 enzyme levels as markers for autophagy and various beneficial processes associated with a caloric restricted diet, and SIRT3 levels as markers for mitochondrial function and longevity.
(§2) In yet a further series of experiments, the inventors also sought to confirm whether or not DDDA would have a modulatory effect in endothelial cells using the same markers and experimental conditions as noted above.
With respect to antioxidant capacity, FIG. 12 depicts exemplary results. […] N=5-6 plates per treatment.

NAMPT = NAMPT enzyme levels in endothelial cells; type: cell-based; details: EOMA endothelial cells, 6 hours; p=0.018
Text: as §1, §2
On the other hand, where endothelial cells were exposed to DDDA, there was a significant difference in NAMPT enzyme levels as is exemplarily depicted in FIG. 15.

liver of rats = assay: qReal time-PCR gene expression in the liver of rats from in vivo study 1 and 2; design: species or system Wistar rats
Experimental: Panels A and B. • Study 1: Twenty adult Wistar rats, aged 8-10 weeks, were included in the study. The rats were housed in individual cages at 22° C. with 12-h light cycles and had ad libitum access to food and water. Rats were fed a high fat high cholesterol diet (44% Carbohydrate, 14% Protein, 42% fat+0.2% Cholesterol) for 4 weeks in the presence or absence of 1% Dodecanedioic acid, sodium salt dissolved in the water (FIG. 25, Panel A). Body weight and food/water intake were monitored weekly. • Study 2: Twenty adult Wistar rats, aged 8-10 weeks, were included in the study. The rats were housed in individual cages at 22° C. with 12-h light cycles and had ad libitum access to food and water. Rats were fed a high fat-high cholesterol diet (44% Carbohydrate, 14% Protein, 42% fat+0.2% Cholesterol). After 9 weeks of diet, rats were randomly assigned to one of the following groups: 4 weeks of high fat-high cholesterol diet or 4 weeks of high fat-high cholesterol diet and 1% Dodecanedioic acid, sodium salt dissolved in the water (FIG. 25, Panel B). Body weight and food/water intake were monitored weekly.
Total RNA from human primary hepatocytes was extracted using the RNeasy Plus Mini Kit according to the indications provided by the company. A small aliquot of total RNA obtained (3 μl) was subjected to qualitative and quantitative control by using the microdrop. The qualitative and quantitative assessment of the individual samples was determined using a dedicated software. The total RNA was reverse transcribed into cDNA by using iScript RT. SYBR Green gene expression assays were performed according to the manufacturer's instruction using the iQTMSYBR Green Supermix and the CFX96 Touch Real-Time PCR Detection System. For this purpose, the following pairs of primer were used: solute carrier family 13 member 5 (SLC13A5) (forward 5′ […] 3′ (SEQ ID NO:1) and reverse 5′ […] 3′ (SEQ ID NO:2)), Diacylglycerol O-Acyltransferase 1 (DGAT1) (forward 5′ […] 3′ (SEQ ID NO:3) and reverse 5′ […] 3′ (SEQ ID NO:4)), Fatty Acid Synthase (FASN) (forward 5′ […] 3′ (SEQ ID NO:5) and reverse 5′ […] 3′ (SEQ ID NO:6)), carnitine palmitoyltransferase 1A (CPT1A) (forward 5′ […] 3′ (SEQ ID NO:7) and reverse 5′ […] 3′ (SEQ ID NO:8)) and Acetyl-CoA carboxylase (ACC1) (forward 5′ […] 3′ (SEQ ID NO:9) and reverse 5′ […] 3′ (SEQ ID NO:10)). mRNA expression levels were normalized to B2-microglobulin (forward 5′[…] 3′ (SEQ ID NO:11); and reverse 5′[…] 3′ (SEQ ID NO:12)) and quantification of relative gene expression, presented as percentage of the relevant baseline, was calculated using the 2-ACT (comparative threshold) method.
C12 decrease de novo lipogenesis and an increase in fatty acid oxidation in vitro and in vivo: To test the hypothesis that C12 could affect de novo lipogenesis and fatty acid beta-oxidation, human primary hepatocytes were stimulated with palmitic acids (0.4 mM) in the presence or absence of C12 1% (v/w). […] Similar results were also observed in our in vivo experiments. […] Data from in vivo study 1 and 2 were pooled together.

[2] = in vivo study 1 and 2 pooled, vs control group
[3] = rats from in vivo study 1 and 2, vs control group

## O=C(O)CCCCCCCCCCC(=O)O [DDDA, dodecanedioic acid]
Wistar rats; high fat/high cholesterol diet with DDA vs without
  liver tissue morphology under H&E stain: significantly closer to normal liver histology
Wistar rats; high fat/high cholesterol diet with low quantities of DDA
  fatty deposits in liver tissue, red oil (ORO) stain: normal or near-normal microscopic appearance
Wistar rats; high fat/high cholesterol diet, DDA at low concentrations
  fibrosis (Sirius red, hepatic collagen): rats without DDA compared to rats with DDA: significantly increased fibrosis as compared to those rats where the diet included DDA at low concentrations
Wistar rats; low concentration of DDA in high fat/high cholesterol diet
  hepatoprotective effect (histopathology, overall): substantial hepatoprotective effect
[1]
  cellular total antioxidant capacity: maintained
NAMPT
  NAMPT enzyme levels: increased NAMPT enzyme levels
Liver of rats; [2]
  ACC1 (de novo lipogenesis enzyme) in liver: decrease
  CPT1A (fatty acid beta-oxidation enzyme) in liver: significant increase
  DGAT (de novo lipogenesis enzyme) in liver: decrease
  FASN (de novo lipogenesis enzyme) in liver: decrease
  gene expression of citrate transporter SLC13A5 in liver: decrease
Liver of rats; [3]
  COLA1A gene expression in liver: decreased expression
  TGFβ gene expression in liver: decreased expression
  αSMA gene expression in liver: decreased expression
